# From ChEMBL document CHEMBL6103543, “Exploring the rhodanine universe: Design and synthesis of fluorescent rhodanine-based derivatives as anti-fibrillar and anti-oligomer agents against α-synuclein and 2N4R tau” (Bioorg Med Chem, 2024)
# pEC50: −log10 of the molar value. Active and inactive are the calls of the source. The rule behind the calls is not given here.
# What was measured:
# [1] = molecular target: Amyloid-beta precursor protein (Homo sapiens) (UniProt P05067); assay: Inhibition of amyloid beta aggregation derived from alzhemier's disease patient brain assessed as reduction in plaque density at 50 uM incubated for 5 days by transmission electron microscopic analysis; conditions: time 5.0 day
# Chain of Amyloid-beta precursor protein (Homo sapiens) (P05067 whole entry, the tested form may be a part): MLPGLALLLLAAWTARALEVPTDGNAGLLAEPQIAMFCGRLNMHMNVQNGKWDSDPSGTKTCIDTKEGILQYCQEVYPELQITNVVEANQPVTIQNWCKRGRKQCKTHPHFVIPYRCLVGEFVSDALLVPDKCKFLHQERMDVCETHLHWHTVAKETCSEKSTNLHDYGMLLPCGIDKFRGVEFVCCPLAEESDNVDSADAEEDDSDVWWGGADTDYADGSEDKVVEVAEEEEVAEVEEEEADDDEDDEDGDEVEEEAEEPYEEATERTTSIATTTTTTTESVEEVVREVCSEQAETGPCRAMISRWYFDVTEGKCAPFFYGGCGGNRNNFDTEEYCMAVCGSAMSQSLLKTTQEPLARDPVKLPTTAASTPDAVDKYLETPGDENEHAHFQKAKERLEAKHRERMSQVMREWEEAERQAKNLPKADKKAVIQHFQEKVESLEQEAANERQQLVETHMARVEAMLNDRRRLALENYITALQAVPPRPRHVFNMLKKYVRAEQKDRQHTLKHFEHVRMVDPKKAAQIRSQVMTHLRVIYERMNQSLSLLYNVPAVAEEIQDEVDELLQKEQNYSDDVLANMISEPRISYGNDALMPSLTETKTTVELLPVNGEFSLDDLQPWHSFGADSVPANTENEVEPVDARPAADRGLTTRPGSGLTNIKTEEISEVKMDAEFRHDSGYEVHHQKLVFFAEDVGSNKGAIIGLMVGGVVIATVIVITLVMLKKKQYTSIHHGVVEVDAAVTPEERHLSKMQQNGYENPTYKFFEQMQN
# [2] = molecular target: T1, Alpha-synuclein (Homo sapiens, UniProt P37840); assay: Inhibition of alpha-syn inclusion formation in human M17D cells expressing doxycyclin-inducible alpha-syn-S3K::YFP inclusion-prone fusion protein assessed as reduction in inclusions at 1.25 to 40 uM treated with compound starting from 24 hrs post plating followed by doxycyclin addition at 48 hrs and measured 96 hrs post plating by Incucyte-based analysis; assay type: cell-based; conditions: dose 1.25-40 µM, time 72.0 hrs
# [3] = molecular target: Microtubule-associated protein tau (Homo sapiens) (UniProt P10636); assay: Inhibition of Tau 0N4R (unknown origin) oligomer formation assessed as reduction in cross linking at 300 uM preincubated with compound followed by Ru(BPY3) addition and measured after 15 sec light irradiation by coomassie blue staining based PICUP assay relative to control
# Chain of Microtubule-associated protein tau (Homo sapiens) (P10636 whole entry, the tested form may be a part): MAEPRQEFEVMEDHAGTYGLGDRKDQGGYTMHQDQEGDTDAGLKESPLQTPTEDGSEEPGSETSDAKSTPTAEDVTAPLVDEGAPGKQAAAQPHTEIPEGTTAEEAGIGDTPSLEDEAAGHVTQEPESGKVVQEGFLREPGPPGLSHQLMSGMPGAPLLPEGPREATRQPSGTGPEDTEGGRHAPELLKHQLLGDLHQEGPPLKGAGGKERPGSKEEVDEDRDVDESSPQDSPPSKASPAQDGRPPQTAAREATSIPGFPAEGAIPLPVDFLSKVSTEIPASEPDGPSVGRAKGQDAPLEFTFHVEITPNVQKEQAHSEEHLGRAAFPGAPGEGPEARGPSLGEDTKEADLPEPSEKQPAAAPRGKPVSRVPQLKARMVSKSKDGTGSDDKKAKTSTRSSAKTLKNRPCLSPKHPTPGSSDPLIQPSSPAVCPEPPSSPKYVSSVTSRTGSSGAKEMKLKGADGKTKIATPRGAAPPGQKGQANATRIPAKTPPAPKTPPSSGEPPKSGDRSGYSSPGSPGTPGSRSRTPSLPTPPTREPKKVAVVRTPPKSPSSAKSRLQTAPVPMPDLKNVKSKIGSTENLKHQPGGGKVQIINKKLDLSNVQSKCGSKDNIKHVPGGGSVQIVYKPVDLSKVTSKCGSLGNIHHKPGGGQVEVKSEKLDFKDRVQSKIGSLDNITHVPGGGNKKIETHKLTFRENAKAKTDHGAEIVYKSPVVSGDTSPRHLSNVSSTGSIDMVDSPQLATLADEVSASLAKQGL
# [4] = molecular target: T1, Alpha-synuclein; assay: Inhibition of alpha-synuclein (unknown origin) oligomer formation at 100 uM incubated for 3 days by Western blot analysis; conditions: time 3.0 day
# [5] = molecular target: Amyloid-beta precursor protein (Homo sapiens) (UniProt P05067); assay: Inhibition of amyloid beta aggregation derived from alzhemier's disease patient brain assessed as reduction in plaques at 50 uM incubated for 5 days by transmission electron microscopic analysis; conditions: time 5.0 day
# [6] = molecular target: Microtubule-associated protein tau (Homo sapiens) (UniProt P10636); assay: Inhibition of Tau 0N4R (unknown origin) oligomer formation assessed as reduction in cross linking at 200 uM preincubated with compound followed by Ru(BPY3) addition and measured after 15 sec light irradiation by coomassie blue staining based PICUP assay relative to control
# [7] = molecular target: T1, Alpha-synuclein; assay: Inhibition of alpha-synuclein (unknown origin) oligomer formation assessed as reduction in cross linking preincubated with compound followed by Ru(BPY3) addition and measured after 1 sec light irradiation by coomassie blue staining based PICUP assay; conditions: dose 50-200 µM
# [8] = molecular target: Microtubule-associated protein tau (Homo sapiens) (UniProt P10636); assay: Inhibition of Tau 0N4R (unknown origin) oligomer formation assessed as reduction in cross linking at 50 uM preincubated with compound followed by Ru(BPY3) addition and measured after 15 sec light irradiation by coomassie blue staining based PICUP assay relative to control
# [9] = molecular target: T1, Alpha-synuclein; assay: Inhibition of recombinant alpha-synuclein (unknown origin) fibril formation assessed as decrease in thioflavin T fluorescence intensity measured every 20 mins by Thioflavin T fluorescence assay
# [10] = molecular target: Microtubule-associated protein tau (Homo sapiens) (UniProt P10636); assay: Inhibition of Tau 2N4R monomer (unknown origin) fibril formation assessed as decrease in aggregation at 100 uM incubated for 5 days by transmission electron microscopic analysis; conditions: time 5.0 day
# [11] = molecular target: T1, Alpha-synuclein; assay: Inhibition of recombinant alpha-synuclein (unknown origin) fibril formation assessed as decrease in aggregation at 100 uM incubated for 3 days by transmission electron microscopic analysis; conditions: time 3.0 day
# [12] = molecular target: Microtubule-associated protein tau (Homo sapiens) (UniProt P10636); assay: Binding affinity to recombinant human 2N4R fibril extracted from Escherichia coli assessed as decrease in fluorescence intensity at 1 uM incubated for 60 mins by fluorescence spectrophotometric analysis
# [13] = molecular target: Microtubule-associated protein tau (Homo sapiens) (UniProt P10636); assay: Inhibition of Tau 0N4R (unknown origin) oligomer formation assessed as reduction in cross linking at 100 uM preincubated with compound followed by Ru(BPY3) addition and measured after 15 sec light irradiation by coomassie blue staining based PICUP assay relative to control
# [14] = Cytotoxicity against human M17D cells expressing doxycyclin-inducible alpha-syn-S3K::YFP inclusion-prone fusion protein assessed as reduction in cell confluency at 1.25 to 40 uM treated with compound starting from 24 hrs post plating followed by doxycyclin addition at 48 hrs and measured 96 hrs post plating by Incucyte-based analysis; assay type: toxicity; conditions: 72 h, dose 1.25-40 µM
# [15] = molecular target: Amyloid-beta precursor protein (Homo sapiens) (UniProt P05067); assay: Inhibition of HFIP-induced recombinant amyloid beta (1 to 42) (unknown origin) aggregation assessed as decrease in thioflavin T fluorescence intensity at 100 uM measured every 20 mins by Thioflavin T fluorescence assay
# [16] = molecular target: T1, Alpha-synuclein; assay: Inhibition of alpha-synuclein (unknown origin) oligomer formation assessed as reduction in cross linking at 100 uM preincubated with compound followed by Ru(BPY3) addition and measured after 1 sec light irradiation by coomassie blue staining based PICUP assay
# [17] = molecular target: T1, Alpha-synuclein; assay: Inhibition of recombinant alpha-synuclein (unknown origin) fibril formation assessed as thioflavin T fluorescence intensity at 100 uM measured every 20 mins by Thioflavin T fluorescence assay (reference value: 100 %)
# [18] = molecular target: T1, Alpha-synuclein; assay: Binding affinity to alpha-synuclein fibril (unknown origin) assessed as decrease in fluorescence intensity at 1 uM incubated for 60 mins by fluorescence spectrophotometric analysis
# [19] = molecular target: Microtubule-associated protein tau (Homo sapiens) (UniProt P10636); assay: Inhibition of recombinant Tau 0N4R (unknown origin) aggregation assessed as decrease in fluorescence intensity at 100 uM measured every 5 mins by Thioflavin S fluorescence assay
# [20] = molecular target: T1, Alpha-synuclein; assay: Binding affinity to alpha-synuclein fibril (unknown origin) assessed as hypsochromic shift at 1 uM incubated for 40 mins by fluorescence spectrophotometric analysis
# [21] = molecular target: T1, Alpha-synuclein; assay: Inhibition of alpha-synuclein (unknown origin) oligomer formation assessed as reduction in cross linking at 100 uM preincubated with compound followed by Ru(BPY3) addition and measured after 1 sec light irradiation by coomassie blue staining based PICUP assay relative to control
# [22] = molecular target: Microtubule-associated protein tau (Homo sapiens) (UniProt P10636); assay: Binding affinity to recombinant human 2N4R fibril extracted from Escherichia coli assessed as fluorescence quenching at 1 uM incubated for 40 mins by fluorescence spectrophotometric analysis
# [23] = molecular target: T1, Alpha-synuclein; assay: Inhibition of alpha-synuclein (unknown origin) oligomer formation assessed as reduction in cross linking at 50 uM preincubated with compound followed by Ru(BPY3) addition and measured after 1 sec light irradiation by coomassie blue staining based PICUP assay relative to control
# [24] = molecular target: Microtubule-associated protein tau (Homo sapiens) (UniProt P10636); assay: Inhibition of recombinant Tau 2N4R (unknown origin) aggregation assessed as decrease in fluorescence intensity at 100 uM measured every 5 mins by Thioflavin S fluorescence assay
# [25] = molecular target: Microtubule-associated protein tau (Homo sapiens) (UniProt P10636); assay: Inhibition of recombinant phosphorylated Tau 1N4R (unknown origin) aggregation assessed as decrease in fluorescence intensity at 100 uM measured every 5 mins by Thioflavin S fluorescence assay
# [26] = molecular target: Microtubule-associated protein tau (Mus musculus) (UniProt P10637); assay: Inhibition of Tau aggregation in mouse N2a cells at 15 uM incubated for 5 days by ThS staining based analysis relative to control; assay type: cell-based; conditions: time 5.0 day
# Chain of Microtubule-associated protein tau (Mus musculus) (P10637 whole entry, the tested form may be a part): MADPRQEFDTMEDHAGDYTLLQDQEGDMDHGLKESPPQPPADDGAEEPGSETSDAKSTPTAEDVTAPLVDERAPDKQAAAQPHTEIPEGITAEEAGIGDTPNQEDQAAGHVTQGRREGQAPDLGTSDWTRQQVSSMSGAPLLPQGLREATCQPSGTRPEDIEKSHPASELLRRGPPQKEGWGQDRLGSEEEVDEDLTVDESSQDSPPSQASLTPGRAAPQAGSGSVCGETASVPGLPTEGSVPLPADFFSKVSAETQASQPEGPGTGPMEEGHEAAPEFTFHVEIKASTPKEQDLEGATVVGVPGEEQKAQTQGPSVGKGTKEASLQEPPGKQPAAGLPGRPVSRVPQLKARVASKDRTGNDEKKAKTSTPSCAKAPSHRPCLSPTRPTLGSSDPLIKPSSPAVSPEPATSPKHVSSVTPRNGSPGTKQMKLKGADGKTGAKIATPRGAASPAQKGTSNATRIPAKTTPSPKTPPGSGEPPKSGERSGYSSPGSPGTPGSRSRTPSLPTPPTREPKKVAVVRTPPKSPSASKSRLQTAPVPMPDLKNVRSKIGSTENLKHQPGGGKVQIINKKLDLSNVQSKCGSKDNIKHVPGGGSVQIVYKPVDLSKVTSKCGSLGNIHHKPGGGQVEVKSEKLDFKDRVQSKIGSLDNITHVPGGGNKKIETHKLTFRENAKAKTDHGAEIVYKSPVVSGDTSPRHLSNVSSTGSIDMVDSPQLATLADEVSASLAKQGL
# [27] = molecular target: T1, Alpha-synuclein; assay: Inhibition of alpha-syn inclusion formation in human M17D cells expressing doxycyclin-inducible alpha-syn-S3K::YFP inclusion-prone fusion protein assessed as reduction in inclusions at 5 uM treated with compound starting from 24 hrs post plating followed by doxycyclin addition at 48 hrs and measured 96 hrs post plating by Incucyte-based analysis; assay type: cell-based; conditions: time 72.0 hrs
# [28] = Cytotoxicity against human M17D cells expressing doxycyclin-inducible alpha-syn-S3K::YFP inclusion-prone fusion protein assessed as reduction in cell confluency at 1.25 to 5 uM treated with compound starting from 24 hrs post plating followed by doxycyclin addition at 48 hrs and measured 96 hrs post plating by Incucyte-based analysis; assay type: toxicity; conditions: 72 h, dose 1.25-5 µM
Structure (SMILES),inhibition [16],Flu intensity [17] [%],also measured
O=C(O)CCN1C(=O)/C(=C/c2c[nH]c3ccccc23)SC1=S,Active,1.9,inhibition [1]: Active; inhibition [2]: inactive; inhibition [3]: 78%; inhibition [4]: Active; inhibition [5]: Active; inhibition [6]: 25%; inhibition [7]: Dose-dependent-effect; inhibition [8]: 13%; pEC50 [9]: 4.88; inhibition [10]: Active; inhibition [11]: Active; Activity [12]: Active; Bathochromic Shift Of 10 Nm Observed; inhibition [13]: 13%; Activity [14]: Non-toxic; inhibition [15]: Active; Activity [18]: Active; Bathochromic Shift Of 10 Nm Observed
O=C(O)CCN1C(=O)/C(=C/c2ccc3ccccc3n2)SC1=S,inactive,25,
O=C(O)CCN1C(=O)/C(=C/c2cccc3cc[nH]c23)SC1=S,Active; Weak Inhibition Observed,14.7,
O=C(O)c1ccc(N2C(=O)/C(=C/c3coc4ccccc34)SC2=S)cc1O,inactive,29.1,
O=C(O)CN1C(=O)/C(=C/c2c[nH]c3ccccc23)SC1=S,Active,10.1,inhibition [7]: Dose-dependent-effect
O=C(O)c1ccc(N2C(=O)/C(=C/c3nc4ccccc4s3)SC2=S)cc1O,inactive,25,
O=C(O)c1ccc(N2C(=O)/C(=C/c3nc4ccccc4s3)SC2=S)cc1,inactive,31.8,
O=C(O)CN1C(=O)/C(=C/c2coc3ccccc23)SC1=S,inactive,24.7,
COc1ccc2c(/C=C3\SC(=S)N(CC(=O)O)C3=O)c[nH]c2c1,Active,1.9,inhibition [2]: inactive; inhibition [3]: 92%; inhibition [4]: Active; inhibition [5]: Active; inhibition [6]: 70%; inhibition [7]: Dose-dependent-effect; inhibition [19]: Active; inhibition [8]: 18%; pEC50 [9]: 5.06; Activity [20]: Active; Slight Hypsochromic Shift Observed Without Any Effect On Fluorescence Intensity; inhibition [21]: 100%; inhibition [13]: 50%; Activity [22]: Active; inhibition [23]: 81%; Activity [14]: Non-toxic; inhibition [15]: Active; inhibition [24]: Active; inhibition [25]: Active
O=C(O)c1ccc(N2C(=O)/C(=C/c3csc4ccccc34)SC2=S)cc1,inactive,70.4,
O=C(O)CN1C(=O)/C(=C/c2cn(CCO)c3ccccc23)SC1=S,Active,27,
O=C(O)c1ccc(N2C(=O)/C(=C/c3csc4ccccc34)SC2=S)cc1O,inactive,56.7,
O=C(O)CN1C(=O)/C(=C/c2cc3ccccc3[nH]2)SC1=S,Active,0.1,
O=C1/C(=C/c2ccc(-c3cccc(Cl)c3)o2)SC(=S)N1Cc1nc2ccccc2[nH]1,,,inhibition [26]: 70%
O=C(O)CN1C(=O)/C(=C/c2nc3ccccc3s2)SC1=S,inactive,0.8,inhibition [11]: Active; Powerful Inhibition Observed
O=C(O)c1ccc(N2C(=O)/C(=C/c3coc4ccccc34)SC2=S)cc1,inactive,15.3,
O=C(O)CCN1C(=O)/C(=C/c2csc3ccccc23)SC1=S,inactive,-0.05,
O=C(O)c1ccc(N2C(=O)/C(=C/c3c[nH]c4ccccc34)SC2=S)cc1O,inactive,8.9,inhibition [27]: Active; Activity [28]: Non-toxic; inhibition [10]: Active; Moderate Effect Observed; inhibition [11]: Active; Moderate Effect Observed
COc1ccc2c(/C=C3\SC(=S)N(CCC(=O)O)C3=O)c[nH]c2c1,inactive,> 100,
O=C(O)CCN1C(=O)/C(=C/c2coc3ccccc23)SC1=S,inactive,31.8,
O=C(O)c1ccc(N2C(=O)/C(=C/c3c[nH]c4ccccc34)SC2=S)cc1,Active,14.9,inhibition [7]: Dose-dependent-effect
O=C(O)c1ccc(N2C(=O)/C(=C/c3ccc4ccccc4n3)SC2=S)cc1,inactive,84.3,
O=C(O)CN1C(=O)/C(=C/c2cccc3cc[nH]c23)SC1=S,Active; Weak Inhibition Observed,15.1,
O=C(O)CCN1C(=O)/C(=C/c2nc3ccccc3s2)SC1=S,inactive,12.1,inhibition [11]: Active; Powerful Inhibition Observed
O=C(O)CN1C(=O)/C(=C/c2csc3ccccc23)SC1=S,inactive,3.2,
O=C(O)CN1C(=O)/C(=C/c2ccc3ccccc3n2)SC1=S,inactive,5.4,
O=C(O)CCN1C(=O)/C(=C/c2cc3ccccc3[nH]2)SC1=S,Active,0.5,
